Experimental data taken from US5691344A, “Vasoconstrictive substituted dihydropyranopyridines” (Janssen Pharmaceutica, N.V., priority 1993, dated 1997).
Counter-ions that a name gives are not always drawn.

Tested on: basilar arteries
Assay: Constriction of isolated basilar artery segments of pigs (serotonin-like response, % of response to serotonin)
Conditions: Sus scrofa; constrictive response expressed as percentage of previous response to serotonin (3×10^-7 M); Krebs-Henseleit solution, 37° C.; read-out: IC50 (the source's name)
Excerpt: The compounds of formula (I), the pharmaceutically acceptable acid-additionsalts and stereochemically isomeric forms thereof have interesting pharmacological properties: they show 5HT1-like agonistic activity. The compounds of the present invention have a remarkable vasoconstrictor activity. They are useful to prevent and treat conditions which are related to vasodilatation. For instance, they are useful in the treatment of conditions characterized by or associated with cephalic pain, e.g. cluster headache and headache associated with vascular disorders, especially migraine. These compounds are also useful in the treatment of venous insufficiency and in the treatment of conditions associated with hypotension. The vasoconstrictor activity of the compounds of formula (I) can be determined using an in vitro-test as is described in "Instantaneous changes of alpha-adrenoreceptor affinity caused by moderate cooling in canine cutaneous veins" in the American Journal of Physiology 234(4), H330-H337, 1978; or in the test described in the pharmacological example, wherein the serotonin-like response of the compounds of the present invention was tested on the basilar arteries of pigs.
Segments of basilar arteries taken from pigs (anaesthetised with sodium pentobarbital) were mounted for recording of isometric tension in organ baths. The preparations were bathed in Krebs--Henseleit solution. The solution was kept at 37° C. and gassed with a mixture of 95% O2 -5% CO2. The preparations were stretched until a stable basal tension of 2 grams was obtained.
The preparations were made to constrict with serotonin (3×10^-7 M). The response to the addition of serotonin was measured and subsequently the serotonin was washed away. This procedure was repeated until stable responses were obtained. Subsequently the test compound was administered to the organ bath and the constriction of the preparation was measured. This constrictive response was expressed as a percentage of the response to serotonin as measured previously.

Structure (SMILES)	EC50
[O-][n+]1cccc2c1OC(CNCCCNc1ncccn1)CC2 (racemic) [Co. No. 3, (±)-N-(3,4-dihydro-2H-pyrano[2,3-b]pyridon-2-yl)methyl]-N'-2-pyrimidinyl-1,3-propanediamine, N-oxide ethanedioate (2:1). monohydrate]	340 nM
CSc1nccc(NCCCNCC2CCc3cccnc3O2)n1 (racemic) [Co. No. 5]	260 nM

Compounds with a lower EC50, results first:

EC50	Structure (SMILES)
130 nM	c1cnc2c(c1)CCC(CNCCCNC1=NCCCN1)O2 (racemic) [Co. No. 2, N-[(3,4-dihydro-2H-pyrano[2,3-b]pyridin-2-yl)methyl]-N'-(1,4,5,6-tetrahydro-2-pyrimidinyl)-1,3-propanediamine dihydrochloride. 2-propanolate (2:1). monohydrate]
120 nM	c1ccc(NCCCNCC2CCc3cccnc3O2)nc1 (racemic) [Co. No. 6]
71 nM	c1cnc(NCCCNCC2CCc3cccnc3O2)nc1 (racemic) [Co. No. 1, (±)-N-[(3,4-dihydro-2H-pyrano[2,3-b]-pyridin-2-yl)methyl]-N'-2-pyrimidinyl-1,3-propanediamine trihydrochloride. 2-propanolate(1:1). monohydrate]
